Source: patent publication US6620963B1, “TRICYCLO[6.2.202,7]DODECA-2(7),3,5-TRIEN-4-CARBONYLAMINO-PHENYL AND TRICYCLO[6.2.202,7]DODECA-2(7),3,5-TRIEN-4-CARBONYLAMINO-HETEROARYL AND RELATED COMPOUNDS HAVING RARα RECEPTOR SELECTIVE BIOLOGICAL ACTIVITY” (Allergan, Inc., priority 2002, dated 2003)

Assays:
RARγ = biological target: T1, RARγ (Homo sapiens, UniProt P13631); assay: ligand binding assay, RARγ; conditions: RARγ receptor subtype; read-out: RAR Kd (nM) γ
T1 sequence (P13631 1-454): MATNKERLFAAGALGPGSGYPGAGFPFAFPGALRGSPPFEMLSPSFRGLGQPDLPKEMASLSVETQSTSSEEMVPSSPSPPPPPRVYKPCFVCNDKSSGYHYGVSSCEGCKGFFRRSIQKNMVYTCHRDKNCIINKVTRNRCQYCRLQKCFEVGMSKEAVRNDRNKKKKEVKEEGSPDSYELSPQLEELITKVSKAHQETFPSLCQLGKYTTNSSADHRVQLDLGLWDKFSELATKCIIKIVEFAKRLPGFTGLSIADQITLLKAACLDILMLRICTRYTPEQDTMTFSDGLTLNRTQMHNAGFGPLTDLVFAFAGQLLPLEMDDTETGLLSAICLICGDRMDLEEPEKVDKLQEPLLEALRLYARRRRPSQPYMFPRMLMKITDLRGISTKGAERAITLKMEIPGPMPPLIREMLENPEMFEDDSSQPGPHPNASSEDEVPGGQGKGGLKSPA
Source text: (§1) A holoreceptor transactivation assay and a ligand binding assay which measure the antagonist/agonist like activity of the compounds of the invention, or their ability to bind to the several retinoid receptor subtypes, respectively, are described in published PCT Application No. WO WO93/11755 (particularly on pages 30-33 and 37-41) published on Jun. 24, 1993, the specification of which is also incorporated herein by reference. A detailed experimental procedure for holoreceptor transactivations has been described by Heyman et al. Cell 68, 397-406, (1992); Allegretto et al. J. Biol. Chem. 268, 26625-26633, and Mangelsdorf et al. The Retinoids: Biology, Chemistry and Medicine, pp 319-349, Raven Press Ltd., New York, which are expressly incorporated herein by reference. The results obtained in this assay are expressed in EC50 numbers, as they are also in the chimeric receptor transactivation assay. The results of ligand binding assay are expressed in Kd numbers. (See Cheng et al. Biochemical Pharmacology Vol. 22 pp 3099-3108, expressly incorporated herein by reference.)

RARβ = biological target: T2, RARβ (Homo sapiens, UniProt P10826); assay: ligand binding assay, RARβ; conditions: RARβ receptor subtype; read-out: RAR Kd (nM) β
T2 sequence (P10826 1-455): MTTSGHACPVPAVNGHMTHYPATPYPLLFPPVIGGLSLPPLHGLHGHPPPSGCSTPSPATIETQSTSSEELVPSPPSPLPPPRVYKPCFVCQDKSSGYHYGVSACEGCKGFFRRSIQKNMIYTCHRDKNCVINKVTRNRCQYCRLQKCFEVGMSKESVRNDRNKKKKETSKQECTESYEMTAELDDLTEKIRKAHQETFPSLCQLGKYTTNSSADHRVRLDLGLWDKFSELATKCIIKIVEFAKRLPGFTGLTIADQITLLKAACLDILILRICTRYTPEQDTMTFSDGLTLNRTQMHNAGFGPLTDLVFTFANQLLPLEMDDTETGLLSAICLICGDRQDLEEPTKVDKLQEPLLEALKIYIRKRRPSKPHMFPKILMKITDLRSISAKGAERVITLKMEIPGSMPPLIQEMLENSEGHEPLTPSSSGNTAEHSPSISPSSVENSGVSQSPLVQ
Source text: as §1

RARα = biological target: T3, RARα (Homo sapiens, UniProt P10276); assay: ligand binding assay, RARα; conditions: RARα receptor subtype; read-out: RAR Kd (nM) α
T3 sequence (P10276 1-462): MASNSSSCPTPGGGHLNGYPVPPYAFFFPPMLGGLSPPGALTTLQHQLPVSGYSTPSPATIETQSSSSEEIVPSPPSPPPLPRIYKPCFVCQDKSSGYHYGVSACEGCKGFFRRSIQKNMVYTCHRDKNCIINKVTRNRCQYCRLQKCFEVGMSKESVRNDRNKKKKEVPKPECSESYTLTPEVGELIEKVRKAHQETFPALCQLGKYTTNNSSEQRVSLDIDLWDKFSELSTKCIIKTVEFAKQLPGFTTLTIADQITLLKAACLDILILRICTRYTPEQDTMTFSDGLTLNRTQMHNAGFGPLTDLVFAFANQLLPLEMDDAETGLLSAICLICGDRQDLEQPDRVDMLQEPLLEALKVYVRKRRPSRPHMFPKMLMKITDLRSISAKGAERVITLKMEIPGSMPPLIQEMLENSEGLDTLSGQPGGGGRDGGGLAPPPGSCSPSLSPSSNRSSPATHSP
Source text: as §1

SMILES	Kd (RARγ) [nM]	Kd (RARβ) [nM]	Kd (RARα) [nM]
CC12CCC(C)(CC1)c1cc(C(=O)Nc3ccc(C(=O)O)c(F)c3)c(O)cc12 [Compound 8, 2-Fluoro-4-[(5-hydroxy-1,8-dimethyl-tricyclo[6.2.20^2,7]dodeca-2(7),3,5-trien-4-carbonyl)amino]benzoic Acid]	> 10000	7200	53
CC12CCC(C)(CC1)c1c2cc(C(=O)Nc2ccc(C(=O)O)c(F)c2)c(O)c1Br [Compound 10, 4-[(6-Bromo-5-hydroxy-1,8-dimethyl-tricyclo[6.2.20^2,7]dodeca-2(7),3,5-trien-4-carbonyl)amino]-2-fluorobenzoic Acid]	> 10000	> 10000	32
CC12CCC(C)(CC1)c1c2cc(C(=O)Nc2cc(F)c(C(=O)O)c(F)c2)c(O)c1Br [Compound 14, 4-[(6-Bromo-5-hydroxy-1,8-dimethyl-tricyclo[6.2.20^2,7]dodeca-2(7),3,5-trien-4-carbonyl)amino]-2,6-difluorobenzoic Acid]	> 10000	> 10000	84
